Measurements from patent US8809232B2, “Herbicidal compositions comprising 4-amino-3-chloro-5-fluoro-6-(4-chloro-2-fluoro-3-methoxyphenyl) pyridine-2-carboxylic acid or a derivative thereof and halosulfuron, pyrazosulfuron and esprocarb” (Dow Agrosciences LLC, priority 2012, dated 2014).

What was measured:
CYPIR = test: Post-emergence foliar-applied herbicidal mixtures, greenhouse, direct seeded rice weeds; format: in vivo, Cyperus iria L.
Description: (§1) Seeds or nutlets of the desired test plant species were planted in a soil matrix prepared by mixing a loam or sandy loam soil (e.g., 28.6 percent silt, 18.8 percent clay, and 52.6 percent sand, with a pH of about 5.8 and an organic matter content of about 1.8 percent) and calcareous grit in an 80 to 20 ratio. The soil matrix was contained in plastic pots with a volume of 1 quart and a surface area of 83.6 square centimeters (cm^2). When required to ensure good germination and healthy plants, a fungicide treatment and/or other chemical or physical treatment was applied. The plants were grown for 8-22 days in a greenhouse with an approximate 14 hr photoperiod which was maintained at about 29° C. during the day and 26° C. during the night. Nutrients (Peters Excel® 15-5-15 5-Ca 2-Mg and iron chelate) were applied in the irrigation solution as needed and water was added on a regular basis. Supplemental lighting was provided with overhead metal halide 1000-Watt lamps as necessary. The plants were employed for testing when they reached the first through fourth true leaf stage.
(§2) Treatments consisted of the acid or esters of 4-amino-3-chloro-5-fluoro-6-(4-chloro-2-fluoro-3-methoxy-phenyl)pyridine-2-carboxylic acid (Compound A), each formulated as an SC (suspension concentrate), and various herbicidal components alone and in combination. Forms of compound A were applied on an acid equivalent basis.
(§3) Other herbicidal components were applied on an active ingredient basis and included the acetolactate synthase (ALS)-inhibiting herbicides halosulfuron-methyl formulated as Permit® 75 WDG, pyrazosulfuron-ethyl formulated as Agreen® WG or Sirius® G, and the VLCFA inhibiting herbicide esprocarb (technical grade material).
(§4) Treatment requirements were calculated based upon the rates being tested, the concentration of active ingredient or acid equivalent in the formulation, and a 12 mL application volume at a rate of 187 L/ha.
(§5) For treatments comprised of formulated compounds, measured amounts of compounds were placed individually in 25 mL glass vials and diluted in a volume of 1.25% (v/v) Agri-Dex® crop oil concentrated to obtain 12× stock solutions. […]
(§6) For treatments comprised of formulated and technical compounds, weighed amounts of the technical materials were placed individually in 25 mL glass vials and dissolved in a volume of 97:3 v/v acetone/DMSO to obtain 12× stock solutions, and measured amounts of the formulated compounds were placed individually in 25 mL glass vials and diluted in a volume of 1.5% (v/v) crop oil concentrate or water to obtain 12× stock solutions. […]

BRAPP = test: as above; format: in vivo
Description: as §1, §2, §3, §4
(§7) For treatments comprised of formulated compounds, measured amounts of compounds were placed individually in 25 mL glass vials and diluted in a volume of 1.25% (v/v) Agri-Dex® crop oil concentrated to obtain 12× stock solutions. […] Application solutions were prepared by adding an appropriate amount of each stock solution (e.g., 1 mL) and diluted to the appropriate final concentrations with the addition of 10 mL of an aqueous mixture of 1.25% (v/v) crop oil concentrate so that the final spray solutions contained 1.25+/−0.05% (v/v) crop oil concentrate.
(§8) For treatments comprised of technical compounds, weighed amounts can be placed individually in 25 mL glass vials and dissolved in a volume of 97:3 v/v acetone/DMSO to obtain 12× stock solutions. […] Application solutions can be prepared by adding an appropriate amount of each stock solution (e.g., 1 mL) and diluted to the appropriate final concentrations with the addition of 10 mL of an aqueous mixture of 1.5% (v/v) crop oil concentrate so that the final spray solutions contain 1.25% (v/v) crop oil concentrate. When technical materials are used, the concentrated stock solutions can be added to the spray solutions so that the final acetone and DMSO concentrations of the application solutions are 16.2% and 0.5%, respectively.
(§9) For treatments comprised of formulated and technical compounds, weighed amounts of the technical materials were placed individually in 25 mL glass vials and dissolved in a volume of 97:3 v/v acetone/DMSO to obtain 12× stock solutions, and measured amounts of the formulated compounds were placed individually in 25 mL glass vials and diluted in a volume of 1.5% (v/v) crop oil concentrate or water to obtain 12× stock solutions. […] Application solutions were prepared by adding an appropriate amount of each stock solution (e.g., 1 mL) and diluted to the appropriate final concentrations with the addition of an appropriate amount of an aqueous mixture of 1.5% (v/v) crop oil concentrate so that the final spray solutions contained 1.25% (v/v) crop oil concentrate. […]

FIMMI = test: In-water applied herbicidal mixtures, greenhouse, transplanted paddy rice weeds; format: in vivo, Fimbristylis miliacea (L.) Vahl
Protocol: (§10) Weed seeds or nutlets of the desired test plant species were planted in puddled soil (mud) prepared by mixing a shredded, non-sterilized mineral soil (50.5 percent silt, 25.5 percent clay, and 24 percent sand, with a pH of about 7.6 and an organic matter content of about 2.9 percent) and water at a 1:1 volumetric ratio. The prepared mud was dispensed in 365 mL aliquots into 16-ounce (oz.) non-perforated plastic pots with a surface area of 86.59 square centimeters (cm^2) leaving a headspace of 3 centimeters (cm) in each pot Mud was allowed to dry overnight prior to planting or transplanting. Rice seeds were planted in Sun Gro MetroMix® 306 planting mixture, which typically has a pH of 6.0 to 6.8 and an organic matter content of about 30 percent, in plastic plug trays. Seedlings at the second or third leaf stage of growth were transplanted into 840 mL of mud contained in 32-oz. non-perforated plastic pots with a surface area of 86.59 cm^2 4 days prior to herbicide application. The paddy was created by filling the headspace of the pots with 2.5 to 3 cm of water. When required to ensure good germination and healthy plants, a fungicide treatment and/or other chemical or physical treatment was applied. The plants were grown for 4-22 days in a greenhouse with an approximate 14 hr photoperiod which was maintained at about 29′C during the day and 26° C. during the night. Nutrients were added as Osmocote® (19:6:12, N:P:K^+ minor nutrients) at 2 g per 16-oz. pot and 4 g per 32-oz. pot. Water was added on a regular basis to maintain the paddy flood, and supplemental lighting was provided with overhead metal halide 1000-Watt lamps as necessary. The plants were employed for testing when they reached the first through fourth true leaf stage.
(§11) Treatments consisted of the acid or esters of 4-amino-3-chloro-5-fluoro-6-(4-chloro-2-fluoro-3-methoxy-phenyl)pyridine-2-carboxylic acid (compound A) each formulated as an SC (suspension concentrate) and various herbicidal components alone and in combination. Forms of compound A were applied on an acid equivalent basis.
(§12) Other herbicidal components were applied on an active ingredient basis and included acetolactate synthase (ALS)-inhibiting herbicides formulated as Permit® 75 WDG, pyrazosulfuron-ethyl formulated as Agreen® WG or Sirius® G, and VLCFA inhibiting herbicide esprocarb (technical grade material).
(§13) Treatment requirements for each compound or herbicidal component were calculated based upon the rates being tested, the concentration of active ingredient or acid equivalent in the formulation, an application volume of 2 mL per component per pot, and an application area of 86.59 cm^2 per pot.
(§14) For formulated compounds, a measured amount was placed in an individual 100 or 200 mL glass vial and was dissolved in a volume of 1.25% (v/v) Agri-Dex® crop oil concentrate to obtain application solutions.
(§15) For technical grade compounds, a weighed amount was placed in an individual 100 to 200 mL glass vial and was dissolved in a volume of acetone to obtain concentrated stock solutions. […] The concentrated stock solutions obtained were diluted with an equivalent volume of an aqueous mixture containing 2.5% (v/v) crop oil concentrate so that the final application solutions contained 1.25% (v/v) crop oil concentrate.
Applications were made by injecting with a pipetter appropriate amounts of the application solutions, individually and sequentially, into the aqueous layer of the paddy. […]

SCPJU [1] = test: as above; format: in vivo, Schoenoplectus juncoides (Roxb.) Palla
Protocol: as §10
Treatments consisted of the acid or esters of 4-amino-3-chloro-5-fluoro-6-(4-chloro-2-fluoro-3-methoxy-phenyl)pyridine-2-carboxylic acid (compound A) each formulated as an SC (suspension concentrate) and various herbicidal components alone and in combination. Forms of compound A were applied on an acid equivalent basis. […]
as §13
(§16) For formulated compounds, a measured amount was placed in an individual 100 or 200 mL glass vial and was dissolved in a volume of 1.25% (v/v) Agri-Dex® crop oil concentrate to obtain application solutions. […]

SCPJU [2] = test: Post-emergence foliar-applied herbicidal mixtures, greenhouse, direct seeded rice weeds; format: in vivo, Schoenoplectus juncoides (Roxb.) Palla
Description: as §1, with “stage. […]” for “stage.”
as §4, §5, §6

ECHCO = test: as above; format: in vivo, Echinochloa colona (L.) Link; conditions: 105 g ai/ha
Description: as §1, with “stage. […]” for “stage.”
as §4, §5, §6

CYPRO = test: In-water applied herbicidal mixtures, greenhouse, transplanted paddy rice weeds; format: in vivo, Cyperus rotundus L.
Protocol: as §10, §11, §12, §13, §14, §15
(§17) Applications were made by injecting with a pipetter appropriate amounts of the application solutions, individually and sequentially, into the aqueous layer of the paddy. Control plants were treated in the same manner with the solvent blank. Applications were made so that all treated plant material received the same concentrations of acetone and crop oil concentrate.
(§18) The treated plants and control plants were placed in a greenhouse as described above and water was added as needed to maintain a paddy flood. […]

LEFCH = test: Post-emergence foliar-applied herbicidal mixtures, greenhouse, direct seeded rice weeds; format: in vivo, Leptochloa chinensis (L.) Nees
Description: as §1, §2, §3, §4, §7, §8, §9

DIGSA = test: as above; format: in vivo, Digitaria sanguinalis (L.) Scop.; conditions: 35 g ai/ha
Description: as §1, §2, §3, §4, §7, §8, §9

SCPMA = test: In-water applied herbicidal mixtures, greenhouse, transplanted paddy rice weeds; format: in vivo; conditions: 35 g ai/ha
Protocol: as §10, §11, §12, §13, §14, §15, §17, §18

ECHOR = test: as above; format: in vivo, Echinochloa oryzoides (Ard.) Fritsch
Protocol: as §10, §11, §12, §13, §14, §15, §17, §18

ECHCG = test: as above; format: in vivo, Echinochloa crus-galli (L.) Beauv.; conditions: 17.5 g ai/ha
Protocol: as §10, with “Water was added on a regular basis to maintain the paddy flood, and supplemental lighting was provided with overhead metal halide 1000-Watt lamps as necessary. The plants were employed for testing when they reached the first through fourth true leaf stage.” left out
as §13, §16

`CCN(C(=O)SCc1ccccc1)C(C)C(C)C` (stereo not drawn) [Esprocarb, S-(phenylmethyl) N-(1,2-dimethylpropyl)-N-ethylcarbamothioate] was tested, and the “Visual Weed Control (%) - 22 DAA CYPIR Obs” value (CYPIR; 52.5 g ai/ha) was 0%, the “Visual Weed Control (%) - 22 DAA CYPIR Obs” value (CYPIR; 105 g ai/ha) was 0% and the “Visual Weed Control (%) - 22 DAA BRAPP Obs” value (BRAPP; 52.5 g ai/ha) was 0%. For the same compound, the “Visual Weed Control (%) - 22 DAA BRAPP Obs” value (BRAPP; 105 g ai/ha) was 0%, the “Visual Weed Control (%) - 21 DAA FIMMI Obs” value (FIMMI; 105 g ai/ha) was 0% and the “Visual Weed Control (%) - 21 DAA FIMMI Obs” value (FIMMI; 210 g ai/ha) was 0%. The “Visual Weed Control (%) - 21 DAA SCPJU Obs” value (SCPJU [1]; 105 g ai/ha) was 0%, the “Visual Weed Control (%) - 21 DAA SCPJU Obs” value (SCPJU [1]; 210 g ai/ha) was 0% and the “Visual Weed Control (%) - 22 DAA SCPJU Obs” value (SCPJU [2]; 52.5 g ai/ha) was 0%. For the same compound, the “Visual Weed Control (%) - 22 DAA SCPJU Obs” value (SCPJU [2]; 105 g ai/ha) was 0%, the “Visual Weed Control (%) - 22 DAA ECHCO Obs” value (ECHCO) was 0% and the “Visual Weed Control (%) - 21 DAA CYPRO Obs” value (CYPRO; 105 g ai/ha) was 0%. The “Visual Weed Control (%) - 21 DAA CYPRO Obs” value (CYPRO; 210 g ai/ha) was 50%.

With `COC(=O)c1c(Cl)nn(C)c1S(=O)(=O)NC(=O)Nc1nc(OC)cc(OC)n1` [Halosulfuron-methyl, methyl 3-chloro-5-[[[[(4,6-dimethoxy-2-pyrimidinyl)amino]carbonyl]amino]sulfonyl]-1-methyl-1H-pyrazole-4-carboxylate, reference compound] the “Visual Weed Control (%) - 20 DAA LEFCH Obs” value (LEFCH; 8.75 g ai/ha) was 0%, the “Visual Weed Control (%) - 20 DAA LEFCH Obs” value (LEFCH; 17.5 g ai/ha) was 0% and the “Visual Weed Control (%) - 20 DAA LEFCH Obs” value (LEFCH; 35 g ai/ha) was 5%. The “Visual Weed Control (%) - 20 DAA DIGSA Obs” value (DIGSA) was 10%, the “Visual Weed Control (%) - 20 DAA SCPMA Obs” value (SCPMA) was 65% and the “Visual Weed Control (%) - 21 DAA ECHOR Obs” value (ECHOR; 8.75 g ai/ha) was 0%. The “Visual Weed Control (%) - 21 DAA ECHOR Obs” value (ECHOR; 17.5 g ai/ha) was 0%, the “Visual Weed Control (%) - 20 DAA ECHOR Obs” value (ECHOR; 35 g ai/ha) was 0% and the “Visual Weed Control (%) - 21 DAA ECHCG Obs” value (ECHCG) was 0%. The “Visual Weed Control (%) - 20 DAA BRAPP Obs” value (BRAPP; 4.38 g ai/ha) was 0%, the “Visual Weed Control (%) - 20 DAA BRAPP Obs” value (BRAPP; 8.75 g ai/ha) was 0% and the “Visual Weed Control (%) - 20 DAA BRAPP Obs” value (BRAPP; 17.5 g ai/ha) was 0%. The “Visual Weed Control (%) - 21 DAA CYPRO Obs” value (CYPRO; 8.75 g ai/ha) was 60% and the “Visual Weed Control (%) - 21 DAA CYPRO Obs” value (CYPRO; 17.5 g ai/ha) was 100%.
